Converted amounts (≈) assume the structure as drawn. “And” between values parts separate entries of the source, which are not always exact repeats. Identical values can stand only once. Like-named read-outs stand apart in the source and are kept apart here.
Columns and labels:
[1] = Solubility of 17-AAG in organic solvents suitable for oral administration; assay type: physicochemical
Text: In other embodiments, pharmaceutical acceptable co-solvents may be added to the phospholipid formulation to further enhance the solubility of the ansamycins. Many suitable co-solvents which are known in the art may be used. […] The resulted formulation can then be combined with any combinations of the general excipients: fillers, glidants, lubricants, disintegrants, binders, solubilizers to form the various oral compositions.

[2] = Solubility assay in simulated intestinal fluid (SIF); assay type: physicochemical; conditions: low melt form; simulated intestinal fluid per USP w/o pancreatin, 24 hours at 37° C.
Procedure: The solubility of an active ingredient may be assayed by its dissolution in a simulated intestinal fluid (SIF) (per USP w/o pancreatin). Conforma Therapeutics has developed a database of SIF solubility data using this assay for a structurally diverse set of compounds that have also been administered orally to mice.
The mixture was incubated with continuous shaking for a predetermined time and temperature, e.g., for 24 hours at 37° C. […] The solubility of the active ingredient is calculated as the difference between the initial and final concentration of the active ingredient in the supernatant normalized to the total volume of SIF used.
The tube was then sonicated for 5 minutes then incubated for 24 hours at 37° C. with shaking. […] Conforma Therapeutics has developed a database of SIF solubility data using this assay for a structurally diverse set of compounds that have also been administered orally to mice.

Caco-2 cell monolayer = assay: in vitro; assay type: in vitro ADME
Text: The permeability of the pharmaceutical active ingredient across the gastrointestinal membrane may be estimated from it permeability across a Caco-2 cell monolayer using standard techniques (e.g. Chong S et al. Pharmaceutical Research 1997 14(12):1835-1837). The reference is hereby expressly incorporated by reference.
Propranolol was included in each assay as a high permeability control compound.

[3] = Absolute oral bioavailability of 17-AAG lipid complex formulation in female rats; assay type: in vivo, Sprague-Dawley rats; conditions: rat; for Apparent Absolute Bioavailability: oral 50 mg/kg vs intravenous 10 mg/kg
Procedure: Female Sprague-Dawley rats were administered a phospholipid complex formulation of the low melt form of 17-AAG by oral gavage or as intravenous infusion (tail vein). Blood samples were collected prior to dosing and up to 6 hrs post dosing.
% F=[(Oral AUC(0-6h)×I.V. Dose)/(I.V. AUC(0-6h)×Oral Dose)]*100.
Blood samples (n=11) were collected via the jugular vein catheter prior to dosing and up to 6 hrs post dosing. The blood was allowed to clot at room temperature for approximately 20 minutes and then placed on ice until centrifugation at 10,000×G for 10 minutes. Serum was collected into polypropylene tubes and frozen at −80° C. until analysis.

[4] = Mouse serum pharmacokinetics of low melt 17-AAG in phospholipids; assay type: in vivo; conditions: Balb/C mice; for 17-AG AUCobs / 17-AG Cmax: metabolite 17-AG
Procedure: Blood was collected at predetermined intervals and the serum was isolated.
Six to 8 week old Balb/C mice were obtained from Harlan Sprague Dawley (Indianapolis, Ind.). The mice were maintained in sterilized filter topped cages or ventilated caging in a room with a 12 h light/12 h dark photoperiod at temperature of 21-23° C. and a relative humidity of 50±5%. Irradiated pelleted food (Harlan Teklad #7912) and autoclaved deionized water were provided ad libitum. Experiments were carried out under institutional guidelines for the proper and humane use of animals in research established by the Institute for Laboratory Animal Research (ILAR).
Drug solutions were prepared and the concentrations were adjusted so that mice received a dose of 2-15 ml/kg administered intravenously (I.V.) as a bolus, orally, or intra-peritoneally (I.P.). […] In I.V. studies blood was sampled at 1, 5, 15, 30, 90 and 120 min. In oral and I.P. studies blood was sampled at 5, 15, 30, 90, 180 minutes and in some cases up to 240 minutes. Blood was collected in capillary tubes, transferred to microcentrifuge tubes, allowed to clot and centrifuged at 14,000 g for 10 minutes at 4° C. to obtain serum.

[5] = Mouse serum pharmacokinetics of low melt 17-AAG in PEG-Tween; assay type: in vivo; conditions: Balb/C mice, PO 40 mg/kg
Procedure: Six to 8 week old Balb/C mice were obtained from Harlan Sprague Dawley, (Indianapolis, Ind.). The mice were maintained in sterilized filter topped cages or ventilated caging in a room with a 12-h light/12-h dark photoperiod at temperature of 21-23° C. and a relative humidity of 50±5%. Irradiated pelleted food (Harlan Teklad #7912) and autoclaved deionized water were provided ad libitum. Experiments were carried out under institutional guidelines for the proper and humane use of animals in research established by the Institute for Laboratory Animal Research (ILAR).
Drug solutions were prepared and the concentrations were adjusted so that mice received a dose of 2-15 ml/kg administered intravenously (I.V.) as a bolus, orally, or intra-peritoneally (I.P.). In I.V. studies blood was sampled at 1, 5, 15, 30, 90 and 120 min. In oral and I.P. studies blood was sampled at 5, 15, 30, 90, 180 minutes and in some cases up to 240 minutes. Blood was collected in capillary tubes, transferred to microcentrifuge tubes, allowed to clot and centrifuged at 14,000 g for 10 minutes at 4° C. to obtain serum.

[6] = adult patients, cited from earlier work; for Cmax: read-out: Plasma Cmax
[7] = intravenous 10 mg/kg, individual animal, 10 mg/kg
[8] = intravenous 10 mg/kg, metabolite 17-AG, individual animal, 10 mg/kg
[9] = intravenous 10 mg/kg, metabolite 17-AG, mean n=3
[10] = oral 50 mg/kg, individual animal, 50 mg/kg
[11] = oral 50 mg/kg, metabolite 17-AG, individual animal, 50 mg/kg
[12] = PO 40 mg/kg, lipid complex, low melt form

C=CCNC1=C2C[C@@H](C)C[C@H](OC)[C@H](O)[C@@H](C)/C=C(\C)[C@H](OC(N)=O)[C@@H](OC)/C=C\C=C(/C)C(=O)NC(=CC1=O)C2=O [Compound 17-AAG, 17-allylamino-17-demethoxygeldanamycin]
Solubility ([1]; solvent Glycerol): 1.1 mg/mL
Solubility ([1]; solvent Glycofurol): 47.0 mg/mL
Solubility ([1]; solvent Labrafil (Apricot Kernol Oil PEG-6 Esters)): 2.4 mg/mL
Solubility ([1]; solvent Labrasol (PEG-8 Caprylic/Capric Glycerides)): 16.1 mg/mL
Solubility ([1]; solvent Polyethylene glycol 400): 12.9 mg/mL
Solubility ([1]; solvent Propylene Carbonate): 12.8 mg/mL
Solubility ([1]; solvent Solutol HS15): 12.4 mg/mL
Solubility ([1]; solvent Transcutol HP (Ethoxydiglycol)): 57.7 mg/mL
Solubility ([1]; solvent Tween 80): 33.8 mg/mL
solubility in SIF [2]: 0.088 mg/mL (≈ 150 µM)
permeability across the Caco-2 monolayer (Caco-2 cell monolayer): 19 ×10⁻⁶ cm/s
17-AAG AUC(0-6) [3, 7]: 172 µg·min/mL and 161 µg·min/mL and 135 µg·min/mL
17-AAG Cmax [3, 7]: 8700 ng/mL and 8000 ng/mL and 7000 ng/mL
17-AAG AUC(0-6) ([3]; intravenous 10 mg/kg, mean n=3): 156 µg·min/mL
17-AAG Cmax ([3]; intravenous 10 mg/kg, mean n=3): 7900 ng/mL
17-AG AUC(0-6) [3, 8]: 17 µg·min/mL and 25 µg·min/mL and 37 µg·min/mL
17-AG Cmax [3, 8]: 300 ng/mL and 200 ng/mL
17-AG AUC(0-6) [3, 9]: 26 µg·min/mL
17-AG Cmax [3, 9]: 200 ng/mL
Apparent Absolute Bioavailability ([3]; individual animal): 160% and 129% and 39%
Apparent Absolute Bioavailability ([3]; mean n=3): 109±63%
17-AAG mean serum concentration six hours post oral dosing ([3]; oral 50 mg/kg, 6 h): 1.6 ± 0.8 µg/mL
17-AG mean serum concentration six hours post oral dosing ([3]; oral 50 mg/kg, 6 h, metabolite 17-AG): 0.6 ± 0.1 µg/mL
17-AAG AUC(0-6) [3, 10]: 1248 µg·min/mL and 1003 µg·min/mL and 305 µg·min/mL
17-AAG Cmax [3, 10]: 5700 ng/mL and 4700 ng/mL and 1200 ng/mL
17-AAG AUC(0-6) ([3]; oral 50 mg/kg, mean n=3): 852 µg·min/mL
17-AAG Cmax ([3]; oral 50 mg/kg, mean n=3): 3900 ± 2400 ng/mL
17-AG AUC(0-6) [3, 11]: 252 µg·min/mL and 238 µg·min/mL and 156 µg·min/mL
17-AG Cmax [3, 11]: 1200 ng/mL and 900 ng/mL
17-AG AUC(0-6) ([3]; oral 50 mg/kg, metabolite 17-AG, mean n=3): 215 µg·min/mL
17-AG Cmax ([3]; oral 50 mg/kg, metabolite 17-AG, mean n=3, 50 mg/kg): 1000 ng/mL
17-AAG AUCobs ([4]; IP 40 mg/kg, vehicle PMSE): 1596 µg·min/mL
17-AAG Cmax ([4]; IP 40 mg/kg, vehicle PMSE): 11800 ng/mL
17-AG AUCobs ([4]; IP 40 mg/kg, vehicle PMSE): 655 µg·min/mL
17-AG Cmax ([4]; IP 40 mg/kg, vehicle PMSE): 5800 ng/mL
% F ([4]; IP 40 mg/kg, vehicle PMSE, relative to IV 40 mg/kg): 91%
Total Absorption ([4]; IP 40 mg/kg, vehicle PMSE, 17-AAG and 17-AG relative to IV dose): 96%
17-AAG AUCobs ([4]; IV 40 mg/kg, vehicle PET): 1752 µg·min/mL
17-AAG Cmax ([4]; IV 40 mg/kg, vehicle PET): 54500 ng/mL
17-AG AUCobs ([4]; IV 40 mg/kg, vehicle PET): 595 µg·min/mL
17-AG Cmax ([4]; IV 40 mg/kg, vehicle PET): 6200 ng/mL
17-AAG AUCobs [4, 12]: 953 µg·min/mL
17-AAG Cmax [4, 12]: 7500 ng/mL
17-AG AUCobs ([4]; PO 40 mg/kg, lipid complex): 532 µg·min/mL
17-AG Cmax ([4]; PO 40 mg/kg, lipid complex): 4500 ng/mL
17-AAG AUCobs ([5]; low melt form): 433 µg·min/mL
17-AAG Cmax ([5]; low melt form): 5000 ng/mL
17-AG AUCobs ([5]; metabolite 17-AG): 163 µg·min/mL
17-AG Cmax ([5]; metabolite 17-AG): 2400 ng/mL
% F ([5]; relative to IV 40 mg/kg): 25%
maximum tolerated dose (MTD) ([6]; daily 1-hour infusion for 5 days every three weeks): 40 mg/m^2
clearance ([6]; mean±SD): 41.0 ± 13.5 L/h
terminal half-life ([6]; mean±SD): 2.5 ± 0.5 h
Cmax ([6]; 40 mg/m^2): 1860 ± 660 nM
Cmax ([6]; 56 mg/m^2): 3170 ± 1310 nM
